# Measured values: article PMC3620320, “Differential Lipid Dependence of the Function of Bacterial Sodium Channels” (PLoS ONE, 2013)
# T1: pore-only NavMs (Magnetococcus marinus, UniProt A0L5S6)
# T1 construct: gene Mmc1_0798; purified from decyl maltoside; tetramer; reconstituted in liposomes
# T1 sequence (A0L5S6 130-237): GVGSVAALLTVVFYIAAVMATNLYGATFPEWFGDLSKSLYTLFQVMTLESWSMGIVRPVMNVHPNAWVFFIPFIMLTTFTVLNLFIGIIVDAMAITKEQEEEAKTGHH
# T2: NavMs (Magnetococcus marinus, UniProt A0L5S6)
# T2 construct: gene Mmc1_0798; expressed in E. coli, hexa-His tag cleaved with thrombin; tetramer; reconstituted in liposomes
# T2 sequence (A0L5S6 1-239 limits assumed): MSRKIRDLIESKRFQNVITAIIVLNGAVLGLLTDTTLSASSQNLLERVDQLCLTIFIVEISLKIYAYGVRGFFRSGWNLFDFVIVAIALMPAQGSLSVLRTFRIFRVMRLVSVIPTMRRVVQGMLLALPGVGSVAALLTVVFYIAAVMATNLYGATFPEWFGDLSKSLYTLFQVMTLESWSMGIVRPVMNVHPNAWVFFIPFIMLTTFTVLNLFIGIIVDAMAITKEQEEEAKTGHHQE
# T3: NaChBac (Halalkalibacterium halodurans, UniProt Q9KCR8)
# T3 construct: gene BH1501; full-length, expressed in E. coli, hexa-His tag cleaved with thrombin; ~31 kDa monomer; tetramer; reconstituted in liposomes
# T3 sequence (Q9KCR8 1-274): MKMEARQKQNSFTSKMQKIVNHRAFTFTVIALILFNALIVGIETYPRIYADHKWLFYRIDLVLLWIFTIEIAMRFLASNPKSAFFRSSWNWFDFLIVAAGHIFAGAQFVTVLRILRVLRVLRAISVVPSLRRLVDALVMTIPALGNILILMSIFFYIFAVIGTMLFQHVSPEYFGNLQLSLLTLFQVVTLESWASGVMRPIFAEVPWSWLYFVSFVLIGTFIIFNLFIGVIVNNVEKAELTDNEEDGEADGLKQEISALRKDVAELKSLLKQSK
# T4: NavSp (Ruegeria pomeroyi, UniProt F7IVA8)
# T4 construct: gene SPO0030; full-length, expressed in E. coli, N-terminal hexa-His tag cleaved with thrombin; 258 amino acids; ~29 kDa monomer; tetramer; reconstituted in liposomes
# T4 sequence (F7IVA8 1-258): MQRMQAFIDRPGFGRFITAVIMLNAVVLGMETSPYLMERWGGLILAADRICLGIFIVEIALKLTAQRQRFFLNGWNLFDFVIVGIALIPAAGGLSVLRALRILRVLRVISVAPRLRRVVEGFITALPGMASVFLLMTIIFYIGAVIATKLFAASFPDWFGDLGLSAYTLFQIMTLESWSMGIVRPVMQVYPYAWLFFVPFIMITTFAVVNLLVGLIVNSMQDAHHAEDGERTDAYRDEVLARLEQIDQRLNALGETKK
# B1: NavMs pore-only construct (voltage sensor subdomain removed) (domain or fragment, Magnetococcus spirillium (strain MC-1))
# chain: T1 sequence (A0L5S6 130-237)
# notes: NavMs of Magnetococcus spirillium (strain MC-1), Uniprot ID printed as AOL5S6 (A0L5S6), pore-only construct without the voltage sensor subdomain; PDB 4F4L is the cited crystal structure of the NavMs pore; also called pore-only NavMs; source: E. coli, purified in decyl maltoside (DM)
# B2: NaChBac, voltage-gated sodium channel from Bacillus halodurans (natural protein, UniProt Q9KCR8 1-274, looked up)
# chain: T3 sequence (Q9KCR8 1-274)
# notes: NaChBac, voltage-gated sodium channel of Bacillus halodurans, Uniprot ID Q9KCR8, full length; pET15b vector was bought; source: E. coli, purified (DDM solubilisation, Ni-NTA in Cymal-5, thrombin, gel filtration)
# Assays:
# [1] = target: T1, pore-only NavMs; assay: […]+ uptake into proteoliposomes; format: biochemical; details: 3:1 POPE:guest lipid, pH 7.5, 60 min; small but significant activation
# [2] = target: T2, NavMs; assay: […]+ uptake into proteoliposomes; format: biochemical; details: 3:1 POPE:guest lipid, pH 7.5, 60 min; activator, greatest activity of guest lipids tested
# [3] = target: T3, NaChBac; assay: […]+ uptake into proteoliposomes; format: biochemical; details: 3:1 POPE:guest lipid, pH 7.5, 120 min; activator, greatest activity of guest lipids tested, modest variation
# [4] = target: NavSp pore-only construct (voltage sensor subdomain removed) (Silicibacter pomeroyi); assay: SEC; gel filtration of pore-only constructs in decyl maltoside (0.2% DM); elution at tetramer mass plus DM micelle (~30 kDa)
# [5] = target: NavSp, voltage-gated sodium channel from Silicibacter pomeroyi (Silicibacter pomeroyi) (UniProt F7IVA8); assay: SEC; Superdex 200 10/300 GL; 10 mM Tris-HCl pH 7.5, 100 mM NaCl, 0.02% NaN3, 0.25% Cymal-5; elution at tetramer mass plus Cymal-5 micelle (~23 kDa)
# [6] = target: T4, NavSp; assay: […]+ uptake into proteoliposomes; format: biochemical; details: 3:1 POPE:PI liposomes with 1% PI(4,5)P2, pH 7.5; inhibitor
# [7] = target: the molecule itself; assay: SEC; gel filtration of pore-only constructs in decyl maltoside (0.2% DM); elution at tetramer mass plus DM micelle (~30 kDa)
# [8] = target: the molecule itself; assay: SEC; Superdex 200 10/300 GL; 10 mM Tris-HCl pH 7.5, 100 mM NaCl, 0.02% NaN3, 0.25% Cymal-5; elution at tetramer mass plus Cymal-5 micelle (~23 kDa)
molecule,measurement,setting,value
"CCCCCCCC/C=C\CCCCCCCC(=O)OC[C@H](COP(=O)(O)OCC(O)COP(=O)(O)OC[C@@H](COC(=O)CCCCCCC/C=C\CCCCCCCC)OC(=O)CCCCCCC/C=C\CCCCCCCC)OC(=O)CCCCCCC/C=C\CCCCCCCC (some centres unmarked) [CL, 18∶1 cardiolipin]",22Na+ uptake into proteoliposomes,[1],small but significant increase in activity when CL was present in the liposomes
"CCCCCCCC/C=C\CCCCCCCC(=O)O[C@H](COC(=O)CCCCCCCCCCCCCCC)COP(=O)(O)OCC(O)CO (some centres unmarked) [PG, 1-palmitoyl 2-oleoyl phospatidyl glycerol]",22Na+ uptake into proteoliposomes,[2],NavMs and NaChBac also showed maximal activity with a negatively-charged lipid
same,22Na+ uptake into proteoliposomes,[3],NavMs and NaChBac also showed maximal activity with a negatively-charged lipid
NavSp pore-only construct (voltage sensor subdomain removed) (domain or fragment),stoichiometry N,[4],4
"NavSp, voltage-gated sodium channel from Silicibacter pomeroyi (from UniProt F7IVA8 1-258) (natural protein)",stoichiometry N,[5],4
"phosphatidylinositol 4,5-bisphosphate [PI(4,5)P2]","% inhibition at 1% PI(4,5)P2",[6],~ 50%
B1,stoichiometry N,[7],4
B2,stoichiometry N,[8],4
